Measured values reported in patent publication US8324390B2, “Tetrazole-substituted anthranilamides as pesticides” (Bayer CropScience AG, priority 2008, dated 2012).
Where two headings read alike, the source gives them in different places.

Legend:
[1] = test system: caterpillars of the armyworm (Spodoptera frugiperda); assay: Spodoptera frugiperda test (SPODFR spray treatment); assay type: in vivo; settings: Spodoptera frugiperda, foliar, read-out: effect in % (caterpillars killed)
Source text: (§1) Solvent: 78.0 parts by weight of acetone

[2] = log P determination by HPLC (EEC Directive 79/831 Annex V.A8); assay type: physicochemical
Protocol: The measurements were carried out using an Agilent 1100 LC system with a 50*4.6 Zorbax Eclipse C18 1.8 μm column (oven temperature 55° C., flow rate 2.0 ml/min).
The following mobile phases were used:
Mobile phase A: acetonitrile+1000 μl of formic acid/l
Mobile phase B: Millipore water+900 μl of formic acid/l

[3] = test system: green peach aphid (Myzus persicae); assay: Myzus test (MYZUPE spray treatment); assay type: in vivo; settings: for pest or weed control at 100 g/ha: Myzus persicae, foliar, read-out: effect in % (aphids killed); for Kill in %/7 days: 100 g/ha
Source text: Solvent: 78 parts by weight of acetone
as §1

[4] = test system: larvae of the mustard beetle (Phaedon cochleariae); assay: Phaedon test (PHAECO spray treatment); settings: Phaedon cochleariae, in Brassica rapa, foliar, read-out: effect in % (beetle larvae killed)
[5] = application rate 100 g/ha, maize leaf discs
[6] = reversed-phase HPLC, Zorbax Eclipse C18 column, determined by HPLC according to EEC Directive 79/831 Annex V.A8, read-out: log P

| SMILES | pest or weed control at 100 g/ha [1, 5] | chromatographic logP [2, 6] | pest or weed control at 100 g/ha [4] | also measured |
| --- | --- | --- | --- | --- |
| Cc1cc(I)cc(C(=O)NC(C)C2CC2)c1NC(=O)c1cc(Cn2nnc(C(F)F)n2)nn1-c1ncccc1Cl (stereo not drawn) [Example 274] |  |  |  | pest or weed control at 100 g/ha ([1]; in Zea mays): ≥ 80%; chromatographic logP ([2]; log P): 3.52; pest or weed control at 100 g/ha ([3]; in Brassica rapa): ≥ 80% |
| CNC(=O)c1cc(Cl)cc(C)c1NC(=O)c1cc(Cn2nnnc2C(F)(F)F)nn1-c1ccccc1F [Example 474] | ≥ 80% | 2.94 | ≥ 80% |  |
| Cc1cc(C#N)cc(C(=O)NC(C)C)c1NC(=O)c1cc(Cn2nnnc2C(F)(F)F)nn1-c1ncccc1Br [Example 482] | ≥ 80% | 2.74 | ≥ 80% |  |
| CNC(=O)c1cc(C#N)cc(C)c1NC(=O)c1cc(Cn2nnnc2C(F)(F)F)nn1-c1ccccc1C(F)(F)F [Example 490] | ≥ 80% | 2.91 | ≥ 80% |  |
| Cc1cc(I)cc(C(=O)NC(C)(C)C)c1NC(=O)c1cc(Cn2nnnc2C(F)(F)F)nn1-c1ncccc1Br [Example 496] | ≥ 80% | 3.73 | ≥ 80% |  |
| Cc1cc(C#N)cc(C(=O)NC(C)C2CC2)c1NC(=O)c1cc(Cn2nnnc2C(F)(C(F)(F)F)C(F)(F)F)nn1-c1ncccc1Cl (stereo not drawn) [Example 499] | ≥ 80% | 3.8 | ≥ 80% |  |
| CNC(=O)c1cc(C#N)cc(C)c1NC(=O)c1cc(C(C)n2nnnc2C(F)(F)F)nn1-c1ncccc1Cl (stereo not drawn) [Example 512] |  |  | ≥ 80% | chromatographic logP ([2]; log P): 2.53; pest or weed control at 100 g/ha ([3]; in Brassica rapa): ≥ 80% |
| Cc1cc(Cl)cc(C(=O)NC(C)(C)C)c1NC(=O)c1cc(Cn2nnnc2C(F)(F)C(F)(F)F)nn1-c1ncccc1Br [Example 514] | ≥ 80% | 3.91 | ≥ 80% |  |
| Cc1cc(C#N)cc(C(N)=O)c1NC(=O)c1cc(Cn2nnnc2C(F)(F)C(F)(F)F)nn1-c1ncccc1Br [Example 517] |  | 2.53 | ≥ 80% | pest or weed control at 100 g/ha ([3]; application rate 100 g/ha, Chinese cabbage leaf discs): ≥ 80% |
| Cc1cc(C#N)cc(C(=O)NC(C)(C)C)c1NC(=O)c1cc(Cn2nnnc2C(F)(F)F)nn1-c1ccccc1 [Example 520] | ≥ 80% | 3.35 | ≥ 80% |  |
| Cc1cc(C#N)cc(C(=O)NC(C)(C)C)c1NC(=O)c1cc(Cn2nnc(C(F)(F)F)n2)nn1-c1ccc(Cl)cc1 [Example 527] | ≥ 80% | 4.16 | ≥ 80% |  |
| CNC(=O)c1cc(C#N)cc(C)c1NC(=O)c1cc(Cn2nnc(C(F)(F)F)n2)nn1-c1ccc(OC(F)(F)F)cc1Cl [Example 531] | ≥ 80% | 3.82 | ≥ 80% |  |
| Cc1cc(Cl)cc(C(=O)NC(C)(C)C)c1NC(=O)c1cc(Cn2nnc(C(F)(F)C(F)(F)F)n2)nn1-c1ccccc1Cl [Example 535] | ≥ 80% | 4.73 | ≥ 80% |  |
| Cc1cc(C#N)cc(C(=O)NCC(F)(F)F)c1NC(=O)c1cc(Cn2nnc(C(F)(F)F)n2)nn1-c1ccccc1Cl [Example 537] | ≥ 80% | 3.48 | ≥ 80% |  |
| Cc1cc(C#N)cc(C(=O)NCC(F)(F)F)c1NC(=O)c1cc(Cn2nnnc2C(F)(F)F)nn1-c1ccccc1Cl [Example 538] | ≥ 80% | 3.2 | ≥ 80% |  |
| Cc1cc(C#N)cc(C(=O)NC(C)C)c1NC(=O)c1cc(Cn2nnc(C(F)(F)C(F)(F)F)n2)nn1-c1ccccc1Cl [Example 539] | ≥ 80% | 3.91 | ≥ 80% |  |
| Cc1cc(Cl)cc(C(=O)NC(C)(C)C)c1NC(=O)c1cc(C(C)n2nnc(C(F)(F)F)n2)nn1-c1ncccc1Cl (stereo not drawn) [Example 541] |  |  | ≥ 80% | pest or weed control at 100 g/ha ([1]; in Zea mays): ≥ 80%; chromatographic logP ([2]; log P): 4.1 |
| Cc1cc(Cl)cc(C(=O)NC(C)C)c1NC(=O)c1cc(Cn2nnc(C(F)(F)C(F)(F)F)n2)nn1-c1ncccc1Cl [drawing 603] |  |  |  | Kill in %/7 days [3]: 70% |
| CNC(=O)c1cc(Cl)cc(C)c1NC(=O)c1cc(Cn2nnnc2C(F)(F)F)nn1-c1ncccc1Cl [drawing 605] |  |  |  | Kill in %/7 days [3]: 100% |
| CNC(=O)c1cc(Cl)cc(C)c1NC(=O)c1cc(Cn2nnnc2-c2ccc(C(F)(F)F)cc2)nn1-c1ncccc1Cl [drawing 606] |  |  |  | Kill in %/7 days [3]: 80% |
